# Laboratory results reported in ChEMBL document CHEMBL5614413, “Design, synthesis and biological evaluation of amphiphilic benzopyran derivatives as potent antibacterial agents against multidrug-resistant bacteria” (Eur J Med Chem, 2024).
# Activity calls are given as the source filed them. The rule behind the calls is not given here.
# Tests used:
# Staphylococcus aureus [1] = test: Bactericidal activity against methicillin-resistant Staphylococcus aureus ATCC 43300 assessed as log reduction in bacterial growth at 16 microg/ml measured after 4 hrs by time-kill kinetics analysis; format: functional; conditions: dose 16 µg/ml
# Escherichia coli = test: Antibacterial activity against penicillin-susceptible Escherichia coli ATCC 25922; format: functional
# Staphylococcus aureus [2] = test: Antibacterial activity against methicillin-resistant Staphylococcus aureus ATCC 43300 infected in sepsis mouse model assessed as reduction in pathological damages in kidney at 5 to 10 mg/kg pre-infected with bacteria for 1 hrs followed by continuous compound administration at 12 hrs intervals for 2 days by H and E staining based analysis; format: functional, organism-based; conditions: dose 5-10 mg/kg, time 2.0 day
# Staphylococcus aureus [3] = test: Drug resistance, ratio of MIC for methicillin-resistant Staphylococcus aureus ATCC 43300 after 20 passages to MIC for methicillin-resistant Staphylococcus aureus ATCC 43300 during first exposure; format: functional
# Staphylococcus aureus [4] = test: Antibacterial activity against methicillin-resistant Staphylococcus aureus ATCC 43300 infected in sepsis mouse model assessed as reduction in number of surviving bacterial colonies in kidney at 5 mg/kg pre-infected with bacteria for 1 hrs followed by continuous compound administration at 12 hrs intervals for 2 days relative to control; format: functional; conditions: time 2 day
# Staphylococcus aureus [5] = test: Inhibition of biofilm formation in methicillin-resistant Staphylococcus aureus ATCC 43300; format: functional, organism-based; conditions: dose 2-32 µg/ml
# Cell membrane [6] = test: Disruption of cell membrane in methicilin-resistant Staphylococcus aureus ATCC 43300 assessed as appearance of wrinkled cell membrane by scanning electron microscopic analysis; format: cell membranes
# Staphylococcus aureus [7] = test: Disruption of preformed biofilm in methicillin-resistant Staphylococcus aureus ATCC 43300 assessed as eradication of biofilm at 8 microg/ml by crystal violet staining based analysis relative to control; format: functional; conditions: dose 8 µg/ml
# Staphylococcus aureus [8] = test: Disruption of preformed biofilm in methicillin-resistant Staphylococcus aureus ATCC 43300 assessed as eradication of biofilm at 64 microg/ml by crystal violet staining based analysis relative to control; format: functional; conditions: dose 64 µg/ml
# Staphylococcus aureus [9] = test: Selectivity ratio of MBC for bactericidal activity against methicillin-resistant Staphylococcus aureus ATCC 43300 in presence of 50% human serum to MBC for bactericidal activity against methicillin-resistant Staphylococcus aureus ATCC 43300; format: functional
# Staphylococcus aureus [10] = test: Selectivity ratio of MBC for bactericidal activity against methicillin-resistant Staphylococcus aureus ATCC 43300 preincubated with 50% human plasma upto 6 hrs to MBC for bactericidal activity against methicillin-resistant Staphylococcus aureus ATCC 43300; format: functional
# Staphylococcus aureus [11] = test: Bactericidal activity against methicillin-resistant Staphylococcus aureus ATCC 43300 by Mueller Hinton broth based assay; format: functional; conditions: time <= 6 hrs
# Staphylococcus aureus [12] = test: Induction of ROS production in methicillin-resistant Staphylococcus aureus ATCC 43300 assessed as fold increase in ROS level at 32 microg/ml by DCFH-DA staining based analysis; conditions: dose 32 µg/ml
# Staphylococcus aureus [13] = test: Antibacterial activity against methicillin-resistant Staphylococcus aureus ATCC 43300 infected in sepsis mouse model assessed as reduction in bacterial load in blood at 10 mg/kg pre-infected with bacteria for 1 hrs followed by continuous compound administration at 12 hrs intervals for 2 days (reference value: 3.69 log10CFU/ml); format: functional; conditions: time 2 day
# Staphylococcus aureus [14] = test: Antibacterial activity against methicillin-resistant Staphylococcus aureus ATCC 43300 infected in sepsis mouse model assessed as reduction in bacterial load in liver at 10 mg/kg pre-infected with bacteria for 1 hrs followed by continuous compound administration at 12 hrs intervals for 2 days (reference value: 7.16 log10CFU/g); format: functional; conditions: time 2 day
# Staphylococcus aureus [15] = test: Antibacterial activity against methicillin-resistant Staphylococcus aureus ATCC 43300 at 1/2 times of MIC measured after 20 passage; format: functional, organism-based
# Staphylococcus aureus [16] = test: Selectivity ratio of MBC for bactericidal activity against methicillin-resistant Staphylococcus aureus ATCC 43300 in presence of 50% human blood to MBC for bactericidal activity against methicillin-resistant Staphylococcus aureus ATCC 43300; format: functional
# Cell membrane [17] = test: Disruption of cell membrane integrity in methicillin-resistant Staphylococcus aureus ATCC 43300 assessed as appearance of blue fluorescence by DAPI/PI staining based microscopic analysis; format: cell membranes
# Staphylococcus aureus [18] = test: Inhibition of biofilm formation in methicillin-resistant Staphylococcus aureus ATCC 43300 at 2 microg/ml relative to control; format: functional
# Staphylococcus aureus [19] = test: Antibacterial activity against methicillin-resistant Staphylococcus aureus ATCC 43300 infected in sepsis mouse model assessed as reduction in bacterial load in spleen at 5 mg/kg pre-infected with bacteria for 1 hrs followed by continuous compound administration at 12 hrs intervals for 2 days (reference value: 7.45 log10CFU/g); format: functional; conditions: time 2 day
# Pseudomonas aeruginosa = test: Antibacterial activity against penicillin-susceptible Pseudomonas aeruginosa ATCC 27853; format: functional
# Cell membrane [20] = test: Induction of cytoplasmic membrane depolarization in methicillin-resistant Staphylococcus aureus ATCC 43300 assessed as increase in fluorescence intensity by DiSC3(5) dye-based fluorescence assay; format: cell membranes
# Staphylococcus aureus [21] = test: Bacteriostatic activity against methicillin-resistant Staphylococcus aureus ATCC 43300 assessed as inhibition of bacterial growth at 1 times of MIC measured after 24 hrs by time-kill kinetic analysis; format: functional, organism-based
# Acinetobacter baumannii = test: Antibacterial activity against Acinetobacter baumannii ATCC 19606; format: functional
# Cell membrane [22] = test: Induction of cell membrane disruption in methicillin-resistant Staphylococcus aureus ATCC 43300 assessed as increase in DNA leakage; format: cell membranes
# Staphylococcus aureus [23] = test: Disruption of preformed biofilm in methicillin-resistant Staphylococcus aureus ATCC 43300 assessed as eradication of biofilm by crystal violet staining method; format: functional, organism-based; conditions: dose 2-64 µg/ml
# Staphylococcus aureus [24] = test: Antibacterial activity against methicillin-resistant Staphylococcus aureus ATCC 43300 infected in sepsis mouse model assessed as reduction in bacterial load in kidney at 5 mg/kg pre-infected with bacteria for 1 hrs followed by continuous compound administration at 12 hrs intervals for 2 days (reference value: 6.75 log10CFU/g); format: functional; conditions: time 2 day
# Staphylococcus aureus [25] = test: Antibacterial activity against methicillin-resistant Staphylococcus aureus ATCC 43300 infected in sepsis mouse model assessed as reduction in pathological damages in liver at 5 to 10 mg/kg pre-infected with bacteria for 1 hrs followed by continuous compound administration at 12 hrs intervals for 2 days by H and E staining based analysis; format: functional, organism-based; conditions: dose 5-10 mg/kg, time 2.0 day
# Staphylococcus aureus [26] = test: Antibacterial activity against methicillin-resistant Staphylococcus aureus ATCC 43300 infected in sepsis mouse model assessed as reduction in bacterial load in liver at 5 mg/kg pre-infected with bacteria for 1 hrs followed by continuous compound administration at 12 hrs intervals for 2 days (reference value: 7.16 log10CFU/g); format: functional; conditions: time 2 day
# Klebsiella pneumoniae = test: Antibacterial activity against Klebsiella pneumoniae ATCC 10031; format: functional
# Staphylococcus aureus [27] = test: Antibacterial activity against methicillin-resistant Staphylococcus aureus ATCC 43300 infected in sepsis mouse model assessed as reduction in number of surviving bacterial colonies in liver at 5 mg/kg pre-infected with bacteria for 1 hrs followed by continuous compound administration at 12 hrs intervals for 2 days relative to control; format: functional; conditions: time 2 day
# Staphylococcus aureus [28] = test: Antibacterial activity against methicillin-resistant Staphylococcus aureus ATCC 43300 infected in sepsis mouse model assessed as reduction in number of surviving bacterial colonies in liver at 10 mg/kg pre-infected with bacteria for 1 hrs followed by continuous compound administration at 12 hrs intervals for 2 days relative to control; format: functional; conditions: time 2 day
compound,measurement,setting,value
CCCCN(CCCC)CCCNCCCOc1c(C(C)=O)ccc2c1C=CC(C)(CCC=C(C)C)O2 (configuration not stated),log(activity),Staphylococcus aureus [1],8.35
same,MIC,Escherichia coli,4 µg/mL
same,Activity,Staphylococcus aureus [2],Active
same,Ratio,Staphylococcus aureus [3],2
same,Activity,Staphylococcus aureus [4],99.2%
same,inhibition,Staphylococcus aureus [5],Dose-Dependent Effect
same,Activity,Cell membrane [6],Active
same,Activity,Staphylococcus aureus [7],26.69%
same,Activity,Staphylococcus aureus [8],>40%
same,selectivity ratio,Staphylococcus aureus [9],2
same,selectivity ratio,Staphylococcus aureus [10],<2
same,MBC,Staphylococcus aureus [11],8 µg/mL
same,fold change (FC),Staphylococcus aureus [12],5
same,Activity,Staphylococcus aureus [13],1.46 log10CFU/ml
same,Activity,Staphylococcus aureus [14],2.69 log10CFU/g
same,Activity,Staphylococcus aureus [15],Active
same,selectivity ratio,Staphylococcus aureus [16],2
same,Activity,Cell membrane [17],Active
same,inhibition at 2 µg/mL,Staphylococcus aureus [18],8.46%
same,Activity,Staphylococcus aureus [19],2 log10CFU/g
same,MIC,Pseudomonas aeruginosa,32 µg/mL
same,Activity,Cell membrane [20],Dose-Dependent Effect
same,Activity,Staphylococcus aureus [21],Active
same,MIC,Acinetobacter baumannii,2 µg/mL
same,Activity,Cell membrane [22],Active
same,Activity,Staphylococcus aureus [23],Dose-Dependent Effect
same,Activity,Staphylococcus aureus [24],2.09 log10CFU/g
same,Activity,Staphylococcus aureus [25],Active
same,Activity,Staphylococcus aureus [26],1.98 log10CFU/g
same,MIC,Klebsiella pneumoniae,4 µg/mL
same,Activity,Staphylococcus aureus [27],98.9%
same,Activity,Staphylococcus aureus [28],99.8%
